Activity calls are given as the source filed them. The calls are words filed in the database; no cut-off is given here.
Key:
JLS-V9 [1] = test: Inhibition of reverse transcriptase from Rauscher murine leukemia virus propagated in JLS-V9 cells at 6 to 18 ug/ml; type: cell-based
[2] = test system: Avian myeloblastosis virus; test: Inhibition of AMV reverse transcriptase assessed as [3H]dGTP incorporation at 5 ug by toluene-based scintillation fluid counting in presence of poly rC.oligo dG template primer
JLS-V9 [3] = test: Inhibition of reverse transcriptase from Rauscher murine leukemia virus propagated in JLS-V9 cells at 5 to 10 ug/ml; type: cell-based
[4] = test system: Avian myeloblastosis virus; test: Inhibition of AMV reverse transcriptase at 12 to 18 ug/ml
[5] = test system: Avian myeloblastosis virus; test: Inhibition of AMV reverse transcriptase assessed as [3H]TTP incorporation at 5 ug by toluene-based scintillation fluid counting in presence of poly dA.oligo dT template primer
[6] = test system: Avian myeloblastosis virus; test: Inhibition of AMV reverse transcriptase assessed as [3H]TTP incorporation at 5 ug by toluene-based scintillation fluid counting in presence of poly rA.oligo dT template primer
[7] = test system: Avian myeloblastosis virus; test: Inhibition of AMV reverse transcriptase assessed as [3H]TTP incorporation at 5 ug by toluene-based scintillation fluid counting in presence of activated DNA template primer
[8] = test system: Avian myeloblastosis virus; test: Inhibition of AMV reverse transcriptase assessed as [3H]TTP incorporation at 5 ug by toluene-based scintillation fluid counting in presence of 70S RNA template primer
[9] = test system: Avian myeloblastosis virus; test: Inhibition of AMV reverse transcriptase assessed as [3H]TTP incorporation at 5 ug by toluene-based scintillation fluid counting in presence of 2 to 20 ug poly rA.oligo dT template primer
[10] = test system: Avian myeloblastosis virus; test: Inhibition of AMV reverse transcriptase assessed as [3H]TTP incorporation by toluene-based scintillation fluid counting in presence of 0.10 umole MnCl2
[11] = test system: Avian myeloblastosis virus; test: Inhibition of AMV reverse transcriptase assessed as [3H]TTP incorporation by toluene-based scintillation fluid counting in presence of 0.50 umole MnCl2
[12] = test system: Avian myeloblastosis virus; test: Inhibition of AMV reverse transcriptase at 30 to 40 ug/ml
JLS-V9 [13] = test: Inhibition of reverse transcriptase from MuLV propagated in JLS-V9 cells at 30 to 40 ug/ml; type: cell-based; conditions: Rauscher murine leukemia virus
[14] = test system: Avian myeloblastosis virus; test: Inhibition of AMV reverse transcriptase at 50 to 60 ug/ml
JLS-V9 [15] = test: Inhibition of reverse transcriptase from Rauscher murine leukemia virus propagated in JLS-V9 cells at 40 to 60 ug/ml; type: cell-based
[16] = test system: Avian myeloblastosis virus; test: Inhibition of AMV reverse transcriptase at 45 to 50 ug/ml
[17] = test system: Avian myeloblastosis virus; test: Inhibition of AMV reverse transcriptase at 6 to 12 ug/ml
[18] = test system: Avian myeloblastosis virus; test: Inhibition of AMV reverse transcriptase assessed as [3H]TMP incorporation by toluene-based scintillation fluid counting
[19] = test system: Avian myeloblastosis virus; test: Inhibition of AMV reverse transcriptase assessed as [3H]TTP incorporation at 5 ug by toluene-based scintillation fluid counting in presence of template primer
[20] = test system: Avian myeloblastosis virus; test: Inhibition of AMV reverse transcriptase at 40 to 50 ug/ml

inhibition [2] [%] | inhibition [5] [%] | inhibition [6] [%] | inhibition [7] [%] | inhibition [8] [%] | Activity [9] | Activity [10] | Activity [11] | Compound | Activity (JLS-V9 [1]) | Activity (JLS-V9 [3]) | inhibition [12] [%] | inhibition (JLS-V9 [13]) [%] | Activity (JLS-V9 [15]) | Activity [2] | Activity [18] | Activity [19] | also measured
3 | 97 | 98 | 96 | 95 | inactive | Active | Active | COc1cc2ccc3c4cc(OC)c(OC)cc4c(OC)[n+](C)c3c2cc1OC | Active | Active | > 90 | > 90 | – | – | – | – | inhibition [4]: 50%
2 | 94 | 95 | 93 | 92 | inactive | Active | Active | COc1cc2ccc3c4cc5c(cc4c(OC)[n+](C)c3c2cc1OC)OCO5 | – | Active | – | – | Active | – | – | – | inhibition [16]: 50%
– | – | – | – | – | inactive | Active | Active | COc1cc2c[n+](C)c3c4cc5c(cc4ccc3c2cc1OC)OCO5 | – | Active | – | – | Active | Active | Active | Active | inhibition [20]: 50%

Compound | inhibition [2] [%] | inhibition [5] [%] | inhibition [6] [%] | inhibition [7] [%] | inhibition [8] [%] | Activity [9] | Activity [10] | Activity [11] | Activity (JLS-V9 [1]) | Activity (JLS-V9 [3]) | inhibition [12] [%] | inhibition (JLS-V9 [13]) [%] | Activity (JLS-V9 [15]) | Activity [2] | Activity [18] | Activity [19] | also measured
COc1cc2c(cc1OC)C(OC)N(C)c1c-2ccc2cc3c(cc12)OCO3.O=C(O)Br (stereo not given) | 2 | 93 | 94 | 92 | 91 | inactive | Active | Active | – | Active | – | – | Active | – | – | – | inhibition [14]: 50%
COc1cc2c(ccc3c4cc(OC)c(OC)cc4c[n+](C)c23)cc1O | – | – | – | – | – | inactive | Active | Active | Active | Active | > 90 | > 90 | – | Active | Active | Active | inhibition [17]: 50%

Reference: ChEMBL document CHEMBL1158150, “Inhibition of reverse transcriptase activity by benzophenanthridine alkaloids” (J Nat Prod, 1979)
